The target of one assay is MNK1 (Homo sapiens, UniProt Q9BUB5). Kind of assay: MNK1 enzymatic assay. It counts as biochemical.
The target in a further assay is MNK2 (Homo sapiens, UniProt Q9HBH9). Kind of assay: MNK2 enzymatic assay. It counts as biochemical.
Assay [1] deals with eIF4e phosphorylation in Hela cell line. Briefly: eIF4e phosphorylation inhibition in Hela cell line. It counts as cell-based. The following applies: Homo sapiens, cellular.

SMILES strings stand for the structures.

MNK1, sequence (Q9BUB5 whole entry): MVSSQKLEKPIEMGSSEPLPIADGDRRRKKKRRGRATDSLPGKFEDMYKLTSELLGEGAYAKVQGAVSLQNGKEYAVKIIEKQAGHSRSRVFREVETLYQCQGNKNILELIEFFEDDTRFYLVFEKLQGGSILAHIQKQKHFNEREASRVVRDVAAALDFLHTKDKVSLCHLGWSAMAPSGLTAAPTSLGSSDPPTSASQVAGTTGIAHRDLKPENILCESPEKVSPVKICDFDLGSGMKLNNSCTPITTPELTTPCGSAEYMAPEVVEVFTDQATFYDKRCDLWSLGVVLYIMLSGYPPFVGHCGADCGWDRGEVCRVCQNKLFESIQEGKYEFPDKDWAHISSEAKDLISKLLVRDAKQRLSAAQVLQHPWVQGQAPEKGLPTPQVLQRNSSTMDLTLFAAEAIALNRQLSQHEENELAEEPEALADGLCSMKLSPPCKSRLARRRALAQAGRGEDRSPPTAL
MNK2, sequence (Q9HBH9 whole entry): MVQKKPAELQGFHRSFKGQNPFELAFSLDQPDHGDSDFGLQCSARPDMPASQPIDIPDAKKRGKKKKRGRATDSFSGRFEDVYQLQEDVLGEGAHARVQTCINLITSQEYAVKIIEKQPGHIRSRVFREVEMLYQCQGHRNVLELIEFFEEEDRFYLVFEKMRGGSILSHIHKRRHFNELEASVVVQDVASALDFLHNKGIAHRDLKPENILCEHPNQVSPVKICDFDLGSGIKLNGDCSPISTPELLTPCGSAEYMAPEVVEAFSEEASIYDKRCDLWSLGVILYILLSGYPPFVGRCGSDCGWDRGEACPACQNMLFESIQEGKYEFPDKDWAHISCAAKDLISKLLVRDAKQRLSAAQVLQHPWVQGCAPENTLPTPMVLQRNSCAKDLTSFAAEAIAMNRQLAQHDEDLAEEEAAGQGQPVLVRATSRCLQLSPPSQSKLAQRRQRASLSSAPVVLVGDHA

`O=C(c1ccc(-c2ccc3ncc(C#Cc4ccnc(Nc5ccccn5)c4)n3n2)cc1)N1CCOCC1` [Example 048, morpholino(4-(3-((2-(pyridin-2-ylamino)pyridin-4-yl)ethynyl)imidazo[1,2-b]pyridazin-6-yl)phenyl)methanone]: the IC50 (as a rule, the concentration that inhibits the measured activity by half) was below 0.5 µM against MNK1, below 0.5 µM at MNK2 and below 5 µM in assay [1].

Regarding `O=C(c1ccc(-c2ccc3ncc(C#Cc4ccnc(Nc5cccnc5)c4)n3n2)cc1)N1CCOCC1` [Example 049, morpholino(4-(3-((2-(pyridin-3-ylamino)pyridin-4-yl)ethynyl)imidazo[1,2-b]pyridazin-6 yl)phenyl)methanone], the IC50 against MNK1 is below 0.5 µM; against MNK2, below 0.5 µM; in assay [1] it was below 5 µM.

Regarding `O=C(c1ccc(-c2ccc3ncc(C#Cc4ccnc(Nc5ccccc5)c4)n3n2)cc1)N1CCOCC1` [Example 051, morpholino(4-(3-((2-(phenylamino)pyridin-4-yl)ethynyl)imidazo[1,2-b]pyridazin-6-yl)phenyl)methanone], the IC50 on MNK1 was below 0.5 µM; at MNK2, below 0.5 µM; in assay [1], below 5 µM.

On to `Cc1ccccc1Nc1cc(C#Cc2cnc3ccc(-c4ccc(C(=O)N5CCOCC5)cc4)nn23)ccn1` [Example 052, morpholino(4-(3-((2-(o-tolylamino)pyridin-4-yl)ethynyl)imidazo[1,2-b]pyridazin-6-yl)phenyl)methanone], for which the IC50 against MNK1 is below 0.5 µM; against MNK2, below 0.5 µM; in assay [1] it was below 5 µM.

Consider `O=C(c1ccc(-c2ccc3ncc(C#Cc4ccnc(Nc5nccs5)c4)n3n2)cc1)N1CCOCC1` [Example 053, morpholino(4-(3-((2-(thiazol-2-ylamino)pyridin-4-yl)ethynyl)imidazo[1,2-b]pyridazin-6-yl)phenyl)methanone], for which the IC50 is below 0.5 µM against MNK1, below 0.5 µM at MNK2 and below 5 µM in assay [1].

Take `O=C(c1ccc(-c2ccc3ncc(C#Cc4ccnc(Nc5ccncn5)c4)n3n2)cc1)N1CCOCC1` [Example 054, morpholino(4-(3-((2-(pyrimidin-4-ylamino)pyridin-4-yl)ethynyl)imidazo[1,2-b]pyridazin-6-yl)phenyl)methanone]: the IC50 on MNK1 was below 0.5 µM; against MNK2, below 0.5 µM; in assay [1], below 5 µM.

For `O=C(c1ccc(-c2ccc3ncc(C#Cc4ccnc(Nc5ccccc5C(F)(F)F)c4)n3n2)cc1)N1CCOCC1` [Example 055, morpholino(4-(3-((2-((2-(trifluoromethyl)phenyl)amino)pyridin-4-yl)ethynyl)imidazo[1,2-b]pyridazin-6-yl)phenyl)methanone], the IC50 against MNK1 was below 0.5 µM; on MNK2, below 0.5 µM; in assay [1] it was below 5 µM.

As to `O=C(c1ccc(-c2ccc3ncc(C#Cc4ccnc(Nc5ncccn5)c4)n3n2)cc1)N1CCOCC1` [Example 056, morpholino(4-(3-((2-(pyrimidin-2-ylamino)pyridin-4-yl)ethynyl)imidazo[1,2-b]pyridazin-6 yl)phenyl)methanone], the IC50 against MNK1 was below 0.5 µM; against MNK2, below 0.5 µM; in assay [1] it was below 5 µM.

Regarding `Cc1cccc(Nc2cc(C#Cc3cnc4ccc(-c5ccc(C(=O)N6CCOCC6)cc5)nn34)ccn2)c1` [Example 057, morpholino(4-(3-((2-(m-tolylamino)pyridin-4-yl)ethynyl)imidazo[1,2-b]pyridazin-6-yl)phenyl)methanone], the IC50 against MNK1 was below 0.5 µM; at MNK2, below 0.5 µM; in assay [1] it was below 5 µM.

For the compound `Cc1ccc(Nc2cc(C#Cc3cnc4ccc(-c5ccc(C(=O)N6CCOCC6)cc5)nn34)ccn2)cc1` [Example 058, morpholino(4-(3-((2-(p-tolylamino)pyridin-4-yl)ethynyl)imidazo[1,2-b]pyridazin-6-yl)phenyl)methanone], the IC50 against MNK1 is below 0.5 µM; at MNK2, below 0.5 µM; in assay [1] it was below 5 µM.

As to `CC(C)c1ccccc1Nc1cc(C#Cc2cnc3ccc(-c4ccc(C(=O)N5CCOCC5)cc4)nn23)ccn1` [Example 059, (4-(3-((2-(2-isopropylphenylamino)pyridin-4-yl)ethynyl)imidazo[1,2-b]pyridazin-6-yl)phenyl)(morpholino)methanone], the IC50 against MNK1 is below 0.5 µM; against MNK2, below 0.5 µM; in assay [1] it was below 5 µM.

Consider `O=C(c1ccc(-c2ccc3ncc(C#Cc4ccnc(Nc5ccccc5-c5ccccc5)c4)n3n2)cc1)N1CCOCC1` [Example 060, (4-(3-((2-(biphenyl-2-ylamino)pyridin-4-yl)ethynyl)imidazo[1,2-b]pyridazin-6-yl)phenyl)(morpholino)methanone], for which the figures for the IC50 (on MNK1; at MNK2; in assay [1]) were below 0.5 µM, below 0.5 µM and below 5 µM, respectively.

Take `Cc1ccccc1C(=O)Nc1cc(C#Cc2cnc3ccc(-c4ccc(C(=O)N5CCOCC5)cc4)nn23)ccn1` [Example 063, 2-methyl-N-(4-((6-(4-(morpholine-4-carbonyl)phenyl)imidazo[1,2-b]pyridazin-3-yl)ethynyl)pyridin-2-yl)benzamide]: the concentration for half-maximal inhibition (IC50) at MNK1 is below 0.5 µM; against MNK2, below 0.5 µM; in assay [1], below 5 µM.

Take `O=C(Nc1cc(C#Cc2cnc3ccc(-c4ccc(C(=O)N5CCOCC5)cc4)nn23)ccn1)c1ccncc1` [Example 064, N-(4-((6-(4-(morpholine-4-carbonyl)phenyl)imidazo[1,2-b]pyridazin-3-yl)ethynyl)pyridin-2-yl)isonicotinamide]: the concentration for half-maximal inhibition (IC50) was below 0.5 µM against MNK1, below 0.5 µM against MNK2 and below 5 µM in assay [1].

Take `O=C(Nc1cc(C#Cc2cnc3ccc(-c4ccc(C(=O)N5CCOCC5)cc4)nn23)ccn1)c1cccnc1` [Example 065, N-(4-((6-(4-(morpholine-4-carbonyl)phenyl)imidazo[1,2-b]pyridazin-3-yl)ethynyl)pyridin-2-yl)nicotinamide]: the IC50 against MNK1 was below 0.5 µM; on MNK2, below 0.5 µM; in assay [1], below 5 µM.

Turning to `O=C(c1ccc(-c2ccc3ncc(C#Cc4ccnc(-c5ccccc5)c4)n3n2)cc1)N1CCOCC1` [Example 070, morpholino(4-(3-((2-phenylpyridin-4-yl)ethynyl)imidazo[1,2-b]pyridazin-6-yl)phenyl)methanone], the figures for the IC50 (against MNK1; at MNK2; in assay [1]) were below 0.5 µM, below 0.5 µM and below 5 µM, respectively.

Consider `CN(c1ccccc1)c1cc(C#Cc2cnc3ccc(-c4ccc(C(=O)N5CCOCC5)cc4)nn23)ccn1` [Example 071, (4-(3-((2-(methyl(phenyl)amino)pyridin-4-yl)ethynyl)imidazo[1,2-b]pyridazin-6-yl)phenyl) (morpholino) methanone], for which the values for the concentration for half-maximal inhibition (IC50) (against MNK1; on MNK2; in assay [1]) were below 0.5 µM, below 0.5 µM and below 5 µM, respectively.

Take `O=C(c1ccc(-c2ccc3ncc(C#Cc4cc(NCc5ccccc5)nc5[nH]ccc45)n3n2)cc1)N1CCOCC1` [Example 073, (4-(3-((6-(benzylamino)-1H-pyrrolo[2,3-b]pyridin-4-yl)ethynyl)imidazo[1,2-b]pyridazin-6-yl)phenyl)(morpholino)methanone]: the IC50 against MNK1 is below 0.5 µM; against MNK2, below 0.5 µM; in assay [1], below 5 µM.

With `NC(=O)c1ccc(-c2ccc3ncc(C#Cc4ccnc(N)c4)n3n2)cc1` [Example 074, 4-(3-((2-aminopyridin-4-yl)ethynyl)imidazo[1,2-b]pyridazin-6-yl)benzamide], the IC50 at MNK1 was below 0.5 µM; against MNK2 it was below 0.5 µM; in assay [1], below 5 µM.

In the case of `C(#Cc1cnc2ccc(-c3ccc(CN4CCOCC4)cc3)nn12)c1ccnc2[nH]ccc12` [Example 075, 4-(4-(3-((1H-pyrrolo[2,3-b]pyridin-4-yl)ethynyl)imidazo[1,2-b]pyridazin-6-yl)benzyl)morpholine], the results for the IC50 (against MNK1; against MNK2; in assay [1]) were below 0.5 µM, below 0.5 µM and below 5 µM, respectively.

In the case of `CN1CCN(C(=O)c2ccc(-c3cn4c(C#Cc5ccccc5)cnc4cn3)cc2)CC1` [Example 089, (4-methylpiperazin-1-yl) (4-(3-(phenylethynyl)imidazo[1,2-a]pyrazin-6-yl)phenyl)methanone], the figures for the IC50 (on MNK1; against MNK2; in assay [1]) were below 0.5 µM, below 0.5 µM and below 5 µM, respectively.

With `O=C(c1ccc(-c2ccc3ncc(C#Cc4ccncc4)n3c2)cc1)N1CCOCC1` [Example 094], the IC50 against MNK1 is below 0.5 µM; against MNK2 it was below 0.5 µM; in assay [1], below 5 µM.

`Cc1cnccc1C#Cc1cnc2ccc(-c3ccc(C(=O)N4CCOCC4)cc3)cn12` [Example 095, (4-(3-((3-methylpyridin-4-yl)ethynyl)imidazo[1,2-a]pyridin-6-yl)phenyl) (morpholino)methanone]: the IC50 against MNK1 was below 0.5 µM; on MNK2 it was below 0.5 µM; in assay [1], below 5 µM.

For `Nc1cc(C#Cc2cnc3ccc(-c4ccc(C(=O)N5CCOCC5)cc4)cn23)ccn1` [Example 096], the IC50 was below 0.5 µM at MNK1, below 0.5 µM against MNK2 and below 5 µM in assay [1].

With `O=C(c1ccc(-c2ccc3ncc(C#Cc4ccnc5[nH]ncc45)n3c2)cc1)N1CCOCC1` [Example 097, (4-(3-((1H-pyrazolo[3,4-b]pyridin-4-yl)ethynyl)imidazo[1,2-a]pyridin-6-yl)phenyl)(morpholino)methanone], the IC50 is below 0.5 µM on MNK1, below 0.5 µM at MNK2 and below 5 µM in assay [1].

Take `Nc1cc(C#Cc2cnc3ccc(-c4ccc(C(=O)N5CCOCC5)cc4)cn23)c2cc[nH]c2n1` [Example 098, (4-(3-((6-amino-1H-pyrrolo[2,3-b]pyridin-4-yl)ethynyl)imidazo[1,2-a]pyridin-6-yl)phenyl)(morpholino)methanone]: the results for the IC50 (on MNK1; on MNK2; in assay [1]) were below 0.5 µM, below 0.5 µM and below 5 µM, respectively.

For the compound `O=C(c1ccc(-c2ccc3ncc(C#Cc4ccnc5[nH]ccc45)n3c2)cc1)N1CCOCC1` [Example 099, (4-(3-((1H-pyrrolo[2,3-b]pyridin-4-yl)ethynyl)imidazo[1,2-a]pyridin-6-yl)phenyl)(morpholino)methanone], the 50% inhibitory concentration (IC50) against MNK1 is below 0.5 µM; on MNK2, below 0.5 µM; in assay [1], below 5 µM.

Values taken from patent US10544149B2, “Bicyclic alkyne derivatives and uses thereof” (Agency for Science, Technology and Research, priority 2013, dated 2020).
